Data published in PubChem BioAssay (NCI).
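Compound exposure: 48 hours, 5 concentrations, 96-well plates. TGI is the concentration that stops growth completely.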

How the values were obtained:
Experiment in all cases: NCI tumour cell line growth inhibition, 48 h
A549 NSCLC = tested on: A549 NSCLC
U251 CNS = tested on: U251 CNS
HCC-2998 colon = tested on: HCC-2998 colon
BT-549 breast = tested on: BT-549 breast
NCI-H522 lung = tested on: NCI-H522 lung
OVCAR-8 ovarian = tested on: OVCAR-8 ovarian
DU-145 prostate = tested on: DU-145 prostate
IGROV1 ovarian = tested on: IGROV1 ovarian
RXF 393 renal = tested on: RXF 393 renal
SF-295 CNS = tested on: SF-295 CNS
ACHN renal = tested on: ACHN renal
LOX IMVI melanoma = tested on: LOX IMVI melanoma
T-47D breast = tested on: T-47D breast
K-562 leukemia = tested on: K-562 leukemia
MALME-3M melanoma = tested on: MALME-3M melanoma
MDA-N = tested on: MDA-N
KM12 colon = tested on: KM12 colon
SNB-75 CNS = tested on: SNB-75 CNS
OVCAR-4 ovarian = tested on: OVCAR-4 ovarian
NCI-H23 lung = tested on: NCI-H23 lung

Structure (SMILES) | TGI (A549 NSCLC) [µM] | TGI (U251 CNS) [µM] | TGI (HCC-2998 colon) [µM] | TGI (BT-549 breast) [µM] | TGI (NCI-H522 lung) [µM] | TGI (OVCAR-8 ovarian) [µM] | TGI (DU-145 prostate) [µM] | TGI (IGROV1 ovarian) [µM] | TGI (RXF 393 renal) [µM] | TGI (SF-295 CNS) [µM] | TGI (ACHN renal) [µM] | TGI (LOX IMVI melanoma) [µM] | TGI (T-47D breast) [µM] | TGI (K-562 leukemia) [µM] | TGI (MALME-3M melanoma) [µM] | TGI (MDA-N) [µM] | TGI (KM12 colon) [µM] | TGI (SNB-75 CNS) [µM] | TGI (OVCAR-4 ovarian) [µM] | TGI (NCI-H23 lung) [µM]
OC(Cc1cc(CC(O)(C(F)(F)F)C(F)(F)F)nc(CC(O)(C(F)(F)F)C(F)(F)F)c1)(C(F)(F)F)C(F)(F)F | 9.69 | 5.32 | > 10 | 6.1 | 8.98 | > 10 | 7.09 | 5.58 | 4.57 | 2.58 | > 10 | 1.34 | > 10 | > 10 | 7.96 | 4.09 | 2.42 | 7.81 | > 10 | 2.65
Cc1cccc(N=N/C(=N\NC(=O)c2cc(Cl)ccc2O)c2ccc(N(CCC#N)CCC#N)cc2C)c1 | > 100 | > 100 | 58.7 | > 100 | 72.6 | > 100 | > 100 | 43.6 | 97.3 | > 100 | > 100 | > 100 | 59.6 | 67.3 | 94.1 | > 100 | 87.7 | > 100 | 76.3 | > 100
CCN(CC)CCSc1c(C(C)=O)c(=O)n(-c2ccccc2)c(=S)n1-c1ccccc1 | 30 | 33.1 | 24.5 | 30.8 | 5.54 | 10.9 | 10 | 27.2 | 3.94 | > 100 | 10.1 | 9.04 | 8.36 | > 43.7 | 20.7 | 20.9 | 35 | > 85.1 | 29 | 33.2
